Measurements from patent US20150320772A1, “USE OF ACETYLSALICYLIC ACID TO PREVENT AND/OR TREAT DIABETIC WOUNDS” (LABORATOIRES URGO, priority 2012, published 2015).

Experiments:
[1] = test system: human peripheral blood-derived monocytes differentiated into macrophages; experiment: Viability of macrophages in vitro in the presence of acetylsalicylic acid (propidium iodide, flow cytometry); details: 72 h incubation
Description: Moreover, cell viability tests are carried out on macrophages for various concentrations of acetylsalicylic acid (FIG. 6).
This method of analysis comprises the use of human peripheral blood-derived monocytes placed in culture in RPMI medium, to which is added M-CSF at 10 ng/ml, for 24 hours in order to differentiate them into macrophages. Acetylsalicylic acid is added to the culture medium in a final concentration of 1000 μM or 5000 μM.
Cell mortality is analyzed, after 72 hours of incubation, by flow cytometry by measuring the cytoplasmic incorporation of propidium iodide.
The aim of such a cell viability test carried out in vitro is to verify the harmfulness of the dose administered to the cells found in the wound, and preferably in the present case to macrophages, which are considered to be a type of effector cell in the healing of the lesion being studied.

diabetic mice (HFD) = experiment: Kinetics of cell infiltration into the wound (exudate) of diabetic mice (HFD) treated with acetylsalicylic acid; format: in vivo; details: 1000 μM solution, D7 post-lesion, versus control diabetic mice
Description: FIG. 7: Kinetics of cell infiltration into the wound of “control” mice and diabetic mice (HFD) treated with acetylsalicylic acid.
HFD mice are murine models for induced diabetes, produced with C57BL/6 mice of 8 weeks of age. These mice follow a high calorie (high-fat) diet for 16 weeks. […] Unlike db/db mice, the diabetic state in these animals is not of genetic origin. The mice of the “control” group for the HFD mice are mice on a standard diet, also known by the abbreviation “NC”.
The cells from the exudate are recovered from D1 post-lesion until no more exudate is secreted by the wound. In order to determine the kinetics of polymorphonuclear neutrophil infiltration, the cells from the exudate from the lesion are characterized by flow cytometry by immunolabeling relating to the membrane receptors Ly6G, 7/4 (for the polymorphonuclear cells) and F4/80 (for the macrophages). A total of 10 000 events is analyzed for each sample. All the results are given in the form of percentage expression.
FIG. 7 describes the kinetics of cell infiltration carried out on “control” diabetic mice or on those to which has been applied a solution of 1000 μM of acetylsalicylic acid.

diabetic mice (db/db) = experiment: Kinetics of wound closure in diabetic mice (db/db) treated topically with acetylsalicylic acid; format: in vivo; details: for wound closure (time to closure): from D3 post-lesion, NaCl control diabetic mice 26 days
Description: These animals are characterized by hyperglycemia, insulin resistance and hypertriglyceridemia, which makes these mice the first choice as models for diabetes of genetic origin. The mice of the “control” group for the db/db mice are heterozygous db/+mice.
The mouse is anesthetized by means of isoflurane (halogenated anesthetic gas). The dorsal part and the flanks of the mouse are shaved and disinfected and a circular excision of close to 1 cm^2 is made. The connective tissue at the interface of the muscle tissue is removed without damaging the muscle fascia. The skin is totally excised as far as the panniculus carnosus.
The wound thus created is protected by a device such as described in the patent applications filed by Laboratoires Urgo, FR 11 62295 and FR 11 62344, which enables both protection of the wound and observation and evaluation of the healing kinetics, and enables exudate to be collected.
The wound healing process is observed from 0 to 30 days post-lesion. Between 3 and 5 very high resolution standardized digital photographs are taken for each animal. The percentage wound closure is based on changes in surface area calculated for the same injury on the same mouse and for the indicated time points. Thus, the mean calculated for wound healing (as a percentage) over the 3 mice in a group is obtained independently and the statistics are calculated from 3 groups of 3 independent experiments.
As already described above, the mouse is anesthetized by means of isoflurane. The dorsal part and the flanks of the mouse are shaved and disinfected and a circular excision of close to 1 cm^2 is made. The connective tissue at the interface of the muscle tissue is removed without damaging the muscle fascia. The skin is totally excised as far as the panniculus carnosus.
In the meantime, the reference solution of acetylsalicylic acid is prepared at 5 mM. This solution will be used to prepare the solutions with concentrations of 100 μM, 200 μM, 300 μM, 1 mM, 2 mM, 2.9 mM, 4.8 mM and 5 mM.
Solutions with concentrations of 100 μM, 200 μM, 300 μM, 1 mM, 2 mM, 2.9 mM, 4.8 mM and 5 mM of acetylsalicylic acid are tested.
A volume of between 50 and 500 μl is taken off from each solution and placed in contact with the wound via a device such as described through the patent applications filed by Laboratoires Urgo, FR 11 62295 and FR 11 62344.
It is noteworthy that this placing of a predefined concentration of acetylsalicylic acid in contact with the site of healing is carried out starting from the third day post-lesion. Indeed, it is in this period that the delay in healing appears in the diabetic mice, compared to the “control” mice (FIGS. 1A and 1B). Moreover, in the context of treating diabetic patients, the treated wounds will already be formed and will be arrested in the inflammatory phase. No chronic wounds, and more particularly diabetic wounds, are treated as soon as they appear. Moreover, the inflammatory phase is an indispensable phase in healing, since it enables the damaged area to be cleaned and deterged by virtue of the infiltration of inflammatory cells such as polymorphonuclear neutrophils. It is therefore necessary to retain inflammation to initiate effective healing, and thus to not entirely block this phase. This is why treatment with acetylsalicylic acid is only proposed starting from D3 post-lesion.

With `CC(=O)Oc1ccccc1C(=O)O` [acetylsalicylic acid] the cell toxicity ([1]; 1000 μM) was “no cell toxicity”, the “reduction of cell viability” value ([1]; 5000 μM) was 20% and the “number of cells infiltrating the site of the lesion” value (diabetic mice (HFD)) was “significant reduction”. The “effect on the healing kinetics compared with control diabetic mice” value (diabetic mice (db/db); 100 μM solution, topical) was “No effect whatsoever”, the “wound closure (time to closure)” value (diabetic mice (db/db); 300 μM solution, topical) was “around twenty” and the “resolution of inflammation compared to control diabetic mice” value (diabetic mice (db/db); 300 μM, 1000 μM and 2000 μM solutions, topical, early phase D3 to D7 post-lesion) was “very clear acceleration of resolution of inflammation”. For the same compound, the “wound closure (time to closure)” value (diabetic mice (db/db); 1000 μM solution, topical) was “around twenty”, the “effect on the healing kinetics compared with control diabetic mice” value (diabetic mice (db/db); 5000 μM solution, topical) was “No effect whatsoever” and the “speed of wound closure (overall conclusion)” value (diabetic mice (db/db); concentration of between 100 μM and 4800 μM, administered from D3 post-lesion) was “increased speed of wound closure”.
